# Reference: publication PMC9814901, “One-pot synthesis of cyclic-aminotropiminium carboxylate derivatives with DNA binding and anticancer properties” (Communications Chemistry, 2022)
# Key:
# [1] = MTS cell viability assay in HEK293; type: cell-based; details: human, HEK293 cells, HEK293, 30 μM
# Procedure: (§1) We investigated the effect of nine cATC derivatives (6b/6d/6e/6f/6i/6j/6k/6l/6n) on cell viability in cancer cell-line HeLa and transformed normal cell-line HEK293. We treated cells with the varying concentrations of the compounds ranging from 10 nM to 50 μM for 18 h (optimized).
# (§2) MTS assay (CellTiter 96® AQueous One Solution Cell Proliferation Assay (Promega, USA) was used to determine the cell viability. HeLa and HEK293 cells (20,000 cells in each well) were plated in 96 well plate and treated with 6e, 6j, and 6n varying concentrations of the compounds ranging from 10 nM to 50 μM for 18 h. The assay was carried out according to the manufacturer’s instructions. Finally, the plate was read in Varioskan™ LUX multimode microplate reader (Thermo Fisher Scientific) at 490 nm.
# (§3) Cell scavenging activity was calculated using the following formula:
# (§4) OD(490nm) (control) – OD(490nm) (Test)/OD(490nm) (control) × 100%
# (§5) Cell Viability of the cell was calculated using the following formula: […]
# HEK293 cells = assay: MTS cell viability assay in HEK293; type: cell-based; details: HEK293, 30 μM, 18 h
# Procedure: as §1, §2, §3, §4, §5
# HeLa cells [2] = assay: Confocal microscopy localization in HeLa cells; type: cell-based; details: IC50 concentrations, 12-18 h
# Procedure: Herein we have shown that cATC fluorescent derivatives bind with ct-DNA in the non-intercalating mode. Thus we assumed that cATC derivatives might bind to the DNA, localizing within the nucleus and affecting the cell division. We studied the localization of fluorescent signals in HeLa cells using IC50 concentrations of compounds (6e, 6j, and 6n) at different time points using a confocal microscope. For all the compounds initially (at 12 h), the signal was present in the cytoplasm and the nucleus (Fig. 6A–C). With increasing time, the signal became more intense in the nucleus (Fig. 6A–D).
# HeLa cells (60,000) were grown onto a coverslip (Coverglass for cell Growth™, Fisherbrand, USA) in a 24-well plate. […] Thereafter, cells were fixed in 4% paraformaldehyde (Himedia), washed with ice-cold 1X PBS, permeabilized with 0.25% Triton X-100 (Sigma), and washed with 0.1% PBST. The cell was counter stained with 49,6-diamidino-2-phenylindole, dihydrochloride (DAPI, Invitrogen) and mounted using one drop of ProLong® Gold antifade reagent (Invitrogen) on a slide. Images were acquired by fluorescence microscope (Leica SP8 TCS) and analyzed using ImageJ (NIH).
# HeLa cells [3] = assay: Apoptosis analysis, FITC Annexin V / PI flow cytometry; type: cell-based; details: IC50 concentration, 18 h
# Procedure: The apoptotic effect of 6e, 6j, and 6n compounds on cancer cells was detected using FITC Annexin V Apoptosis Detection Kit I (BD Pharmingen™, NJ, USA) according to the manufacturer’s protocol. 0.5 × 10^6 […] HeLa cells were seeded in a 6-well plate and treated with IC50 concentrations for 18 h. Harvested cells were incubated with Annexin V FITC and PI PE-conjugated antibody and apoptosis was evaluated using FACSCalibur (BD Biosciences, CA, USA) flow cytometry. Data were analyzed using CellQuest Pro software (BD Biosciences).
# human genomic DNA [4] = assay: Agarose gel electrophoresis of human genomic DNA treated with cATC derivatives; type: binding; details: 1% agarose gel; EtBr control
# Excerpt: Further, we examined the effect of cATC derivatives (6a/6e/6j/6n) on the ct-DNA duplex structure by circular dichroism (CD) studies. We recorded the CD spectra of ct-DNA with the increasing concentration of cATC derivatives (SM, Fig. S24). […] Next, we examined the binding site of cATC derivative (ligand) at the DNA duplex structure by using AutoDock-Vina, a well-reported computational docking program. We performed docking of cATC derivatives (6a/6d/6k) crystal structure (ligand) with dodecamer DNA duplex crystal structure (PDB ID-1BNA) as the receptor. Our docking results strongly support the non-covalent interaction of cATC derivatives (6a/6d/6k) at the DNA-minor groove with the binding affinity ~7.0 Kcal/mole, mostly hydrophobic interactions (SM, Figs. S25–7, Table S8). […] Overall, cATC derivatives non-covalently bind with DNA duplex through the non-intercalative mode without affecting the native duplex structure. Next, we examined the DNA binding affinity of cATC derivatives (6e/6j/6n) by gel-electrophoresis. The different concentrations of human genomic DNA were treated with EtBr (control) and cATC derivatives (6e/6j/6n) and ran on 1% agarose gel (SM, Fig. S28A–D). […] Further, the Microscale thermophoresis (MST) technique was used to calculate the binding affinities of cATC derivatives (6e/6j/6n) (20 µM) with varying concentrations of human genomic DNA (40 fM to 75 pM).
# human genomic DNA [5] = assay: Microscale thermophoresis (MST) binding of cATC derivatives to human genomic DNA; details: cATC derivative 20 µM, human genomic DNA 40 fM to 75 pM
# Excerpt: Further, we examined the effect of cATC derivatives (6a/6e/6j/6n) on the ct-DNA duplex structure by circular dichroism (CD) studies. We recorded the CD spectra of ct-DNA with the increasing concentration of cATC derivatives (SM, Fig. S24). […] Next, we examined the binding site of cATC derivative (ligand) at the DNA duplex structure by using AutoDock-Vina, a well-reported computational docking program. We performed docking of cATC derivatives (6a/6d/6k) crystal structure (ligand) with dodecamer DNA duplex crystal structure (PDB ID-1BNA) as the receptor. Our docking results strongly support the non-covalent interaction of cATC derivatives (6a/6d/6k) at the DNA-minor groove with the binding affinity ~7.0 Kcal/mole, mostly hydrophobic interactions (SM, Figs. S25–7, Table S8). […]
# DNA was isolated from 10 × 10^6 HeLa cells by QIAmp DNA mini Kit (Qiagen, Germany). cATC derivatives (6e, 6j, and 6n dissolved in a mixture of 1X PBS containing 1% DMSO) and DNA ranging from a concentration of 40 fM to 75pM (resuspended in 1X TE with 0.05% Tween-20), was used for analyzing the interaction of cATC derivatives with DNA. […] 15 µl of the above mixture was loaded in capillaries and binding affinity was measured using the NanoTemper instrument followed by analysis through NanoTemper analysis 1.2.231 software.
# 4T1 cell derived tumor = assay: 4T1 xenograft tumor growth in Balb/C mice; type: in vivo, mouse; details: Balb/C 4T1 model, 6e 1 mg/kg/day, 6j 0.5 mg/kg/day, 6n 1 mg/kg/day
# Procedure: To understand the potential and tolerance of 6e, 6j, and 6n compounds using in vivo system, we used Balb/C 4T1 cell line xenograft mouse model. Treatment was initiated after tumors reached a mean value of 20.47 mm^3 (day 8) and treated with 6e, 6j, and 6n at a dosage of 1 mg/kg/day, 0.5 mg/kg/day, and 1 mg/kg/day, respectively. Body weight and activity were observed three days post injection, every alternative day. […] Based on this study, we deduced that these compounds are well tolerated by the animals.
# All animal experiments were approved by the Institutional Animal Ethics Committee, NISER, India (AH-214). Female BALB/c mice (aged 6–8 weeks, 18–20 g) were injected with 1 × 10^6 4T1 breast cancer cells into the mammary fat pad. After one week, 6j (0.5 mg/kg), 6e (1 mg/kg) and 6n (1 mg/kg) compounds were injected intraperitoneally in mice at the interval of every 24 h for a period of 21 days. Thereafter, the mice were sacrificed and the xenograft tumors were removed, weighed, and photographed.
structure (smiles),measurement,setting,value
Cc1cccc(C2C(C(=O)[O-])N(CCc3ccccc3)c3ccccc[c+]3N2Cc2ccccc2)c1 (centres unmarked) [Compound 6e],"viability at 18 h, 30 µM",[1],38.8%
same,Growth inhibition,HEK293 cells,61.1%
same,cellular localization of fluorescent signal,HeLa cells [2],penetrate the cell membrane and localize to the nucleus
same,Late Apoptotic cells (FITC-AV+/PI+),HeLa cells [3]; control 2.9 %,15.6%
same,Early Apoptotic cells (FITC-AV+/PI-),HeLa cells [3]; control 3.6 %,62.5%
same,cells entered into apoptotic phase,HeLa cells [3]; control 6.5%,78.2%
same,visibility of DNA-bound compound on agarose gel under UV light,human genomic DNA [4],signal was equivalent to EtBr
same,Hill's coefficient (nH),human genomic DNA [5],1.6
same,tumor growth / tumor size,4T1 cell derived tumor; day 8 till day 20,inhibit tumor growth in vivo
same,behavior/activity versus control group,4T1 cell derived tumor; intraperitoneal,normal behavior/activity
same,body weight versus control group,4T1 cell derived tumor; intraperitoneal,no significant difference in body weight
